SMILES strings stand for the structures.

The data set can be described thus: Storage stability of the crystalline form at 30° C. / 65% RH in a capped vial. The data set is classed as physicochemical. The source says: The crystalline formic acid solvate of bardoxolone methyl; more particularly, Form A, can be dried by any conventional methods known to one of ordinary skill in the art. In one embodiment, it is desirable to avoid extensive drying of the crystalline formic acid solvate of bardoxolone methyl; more particularly, Form A, to avoid the potential for desolvation. In one embodiment, it is desirable to store the crystalline formic acid solvate of bardoxolone methyl; more particularly, Form A, away from high heat and humidity. Form A remains stable at 30° C. at 65% RH for at least 5 days in a capped vial.

For the compound `COC(=O)[C@]12CCC(C)(C)C[C@H]1[C@H]1C(=O)C=C3[C@@]4(C)C=C(C#N)C(=O)C(C)(C)[C@@H]4CC[C@@]3(C)[C@]1(C)CC2` [Form A, di-formic acid solvate of bardoxolone methyl], the “time Form A remains stable” value is listed as “at least 5 days”.
